From patent publication US10981932B2, “Macrocyclic indole derivatives” (Bayer Aktiengesellschaft, priority 2016, dated 2021)
Like-named read-outs stand apart in the source and are kept apart here.

Experiments:
SUDHL10 [1] = test: Anti-proliferative effect (CellTiter-Glo, 72 h), SUDHL10; type: cell-based; conditions: SUDHL10 cells, antiproliferation, 72 h incubation, median, read-out: Antiproli SUDHL10 [M] (median)
Outline: (§1)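 Cells were treated with compounds for 72 h at 37 °C in a humidified incubator, and viability was measured by CellTiter-Glo luminescence. A parallel day 0 plate, read the same way, gave the time zero baseline.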

OPM2 = test: Anti-proliferative effect (CellTiter-Glo, 72 h), OPM2; type: cell-based; conditions: OPM2 cells, median, read-out: IC50 antiproliferation assay OPM2 [M] (median)
Outline: as §1

SUDHL10 [2] = test: Induction of cytotoxicity (CellTiter-Glo, 5 h), SUDHL10
SUDHL5 [3] = test: Induction of cytotoxicity (CellTiter-Glo, 5 h), SUDHL5
MCL-1 = MCL-1 (Homo sapiens, UniProt Q07820); test: Protein-protein interaction assay MCL-1/Noxa BH3 peptide (MCL-1 assay), TR-FRET; type: binding; conditions: MBP-MCL-1 / Noxa BH3-derived peptide, median
MCL-1, sequence (Q07820 whole entry): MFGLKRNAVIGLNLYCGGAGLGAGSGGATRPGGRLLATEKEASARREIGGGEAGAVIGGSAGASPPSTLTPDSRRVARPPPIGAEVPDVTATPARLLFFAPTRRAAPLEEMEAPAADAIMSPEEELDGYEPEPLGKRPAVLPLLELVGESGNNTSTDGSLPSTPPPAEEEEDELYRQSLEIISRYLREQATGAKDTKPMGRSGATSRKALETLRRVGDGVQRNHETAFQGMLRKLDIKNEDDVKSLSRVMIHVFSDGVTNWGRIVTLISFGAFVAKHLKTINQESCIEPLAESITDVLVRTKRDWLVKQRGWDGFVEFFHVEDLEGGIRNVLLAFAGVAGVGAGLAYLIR
Outline: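 TR-FRET, 665/622 nm emission ratio (excitation 330–350 nm), measured MCL-1/Noxa complex formation. 1 nM MBP-MCL-1, 50 mM Tris/HCl pH 7, 0.1% BGG, 2 mM DTT. Incubation 1 h at 22 °C, then overnight at 4 °C. IC50 by 4-parameter regression, normalized to DMSO (0%) and no-MCL-1 (100%) controls.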

A2780 = test: Anti-proliferative effect (CellTiter-Glo, 72 h), A2780; type: cell-based; conditions: A2780 cells, median, read-out: IC50 antiproliferation assay A2780 [M] (median)
Outline: as §1

SUDHL5 [4] = test: Induction of caspase-3/7 activity (Caspase-Glo 3/7), SUDHL5; type: cell-based; conditions: caspase-3/7 induction, SUDHL5 cells, 3 h treatment, median
Outline: (§2)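 DLBCL cells treated with compounds for 3 h at 37 °C, then caspase-3/7 activity read by Caspase-Glo 3/7 luminescence. Medium-only background subtracted; EC50 fitted with C0 fixed at 1 and top set to the reference compound's maximal induction.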

SUDHL5 [5] = test: Anti-proliferative effect (CellTiter-Glo, 72 h), SUDHL5; type: cell-based; conditions: SUDHL5 cells, antiproliferation, 72 h incubation, median, read-out: Antiproli SUDHL5 [M] (median)
Outline: as §1

SUDHL10 [6] = test: Induction of caspase-3/7 activity (Caspase-Glo 3/7), SUDHL10; type: cell-based; conditions: caspase-3/7 induction, SUDHL10 cells, 3 h treatment, median
Outline: as §2

[7] = Homo sapiens, SU-DHL10, 5 h, read-out: Cytotox SUDHL10 [M] (median), SUDHL10 cells, cytotoxicity induction, CellTiter-Glo, 5 h incubation, median
[8] = Homo sapiens, SU-DHL-5, 5 h, read-out: Cytotox SUDHL5 [M] (median), SUDHL5 cells, cytotoxicity induction, CellTiter-Glo, 5 h incubation, median
[9] = read-out: Cytotox SUDHL10 [M] (median), SUDHL10 cells, cytotoxicity induction, CellTiter-Glo, 5 h incubation, median
[10] = read-out: Cytotox SUDHL5 [M] (median), SUDHL5 cells, cytotoxicity induction, CellTiter-Glo, 5 h incubation, median

Row | SMILES | IC50 (SUDHL10 [1]; Homo sapiens, SU-DHL10, 72 h) [M] | IC50 (OPM2; Homo sapiens, OPM-2, 72 h) [M] | IC50 (SUDHL10 [2]; [7]) [M] | IC50 (SUDHL5 [3]; [8]) [M] | IC50 (MCL-1) [µM] | IC50 (A2780; Homo sapiens, A2780, 72 h) [M] | EC50 (SUDHL5 [4]; Homo sapiens, SU-DHL-5, 3 h) [µM] | IC50 (SUDHL5 [5]; Homo sapiens, SU-DHL-5, 72 h) [M] | EC50 (SUDHL10 [6]; Homo sapiens, SU-DHL10, 3 h) [µM] | IC50 (SUDHL10 [1]) [M] | IC50 (OPM2) [M] | IC50 (SUDHL10 [2]; [9]) [M] | IC50 (SUDHL5 [3]; [10]) [M] | IC50 (A2780) [M] | EC50 (SUDHL5 [4]) [µM] | IC50 (SUDHL5 [5]) [M] | EC50 (SUDHL10 [6]) [µM]
1 | Cn1nc(CN2CCOCC2)c2c1COCCCCn1c(C(=O)O)c(CCCOc3cccc4ccccc34)c3cccc-2c31 (racemic) [Example 135, (rac)-1-methyl-3-(morpholin-4-ylmethyl)-7-[3-(naphthalen-1-yloxy)propyl]-1,10,11,12,13,15-hexahydropyrazolo[4′,3′:9,10][1,6]oxazacycloundecino[8,7,6-hi]indole-8-carboxylic Acid] | 1.01e-05 | > 3.3e-05 | > 3.3e-05 | 1.06e-05 | 0.0147 | > 3.3e-05 | 12.1 | 7.26e-06 | > 33 |  |  |  |  |  |  |  | 
2 | CN1CCCn2c(C(=O)O)c(CCCOc3cccc4ccccc34)c3cccc(c32)-c2c(COc3ccc(N4CCN(S(C)(=O)=O)CC4)cc3)nn(C)c2C1 (single isomer, unassigned) [Example 1-47, (−)-7,9-dimethyl-11-({4-[4-(methylsulfonyl)piperazin-1-yl]phenoxy}methyl)-1-[3-(naphthalen-1-yloxy)propyl]-4,5,6,7,8,9-hexahydropyrazolo[3′,4′:7,8][1,5]diazecino[9,10,1-hi]indole-2-carboxylic Acid] |  |  |  |  | 0.0193 |  |  |  |  | 3.99e-06 | 8.35e-06 | 1.32e-05 | 1.08e-05 | 6.4e-06 | 9.12 | 3.91e-06 | 9.54
3 | Cn1nc(COc2ccc(S(C)(=O)=O)cc2)c2c1COCC=CCn1c(C(=O)O)c(CCCOc3cccc4ccccc34)c3cccc-2c31 (single isomer, unassigned) [Example 1-53, (E/Z)-1-methyl-3-{[4-(methylsulfonyl)phenoxy]methyl}-7-[3-(naphthalen-1-yloxy)propyl]-1,10,13,15-tetrahydropyrazolo[4′,3′:9,10][1,6]oxazacycloundecino[8,7,6-hi]indole-8-carboxylic Acid] |  |  |  |  | 0.0162 |  |  |  |  | 7.2e-06 | > 3.3e-05 | 7.89e-06 | 6.49e-06 | 2.48e-05 | 10.2 | 1.36e-05 | 7.5
4 | Cn1nc(COc2ccc(S(C)(=O)=O)cc2)c2c1COCCCCn1c(C(=O)O)c(CCCOc3cccc4ccccc34)c3cccc-2c31 (single isomer, unassigned) [Example 1-55, (−)-1-methyl-3-{[4-(methylsulfonyl)phenoxy]methyl}-7-[3-(naphthalen-1-yloxy)propyl]-1,10,11,12,13,15-hexahydropyrazolo[4′,3′:9,10][1,6]oxazacycloundecino[8,7,6-hi]indole-8-carboxylic Acid] |  | > 3.3e-05 | 1.73e-05 |  | 0.167 | 2.59e-05 |  |  |  | 9.09e-06 |  |  | > 3.3e-05 |  | > 33 | 1.34e-05 | > 33
5 | Cn1nc(COc2ccc(S(C)(=O)=O)cc2)c2c1COCCCCn1c(C(=O)O)c(CCCOc3cccc4ccccc34)c3cccc-2c31 (single isomer, unassigned) [Example 1-56, (+)-1-methy-3-{[4-(methylsulfonyl)phenoxy]methyl}-7-[3-(naphthalen-1-yloxy)propyl]-1,10,11,12,13,15-hexahydropyrazolo[4′,3′:9,10][1,6]oxazacycloundecino[8,7,6-hi]indole-8-carboxylic Acid] |  |  |  |  | 0.00684 |  |  |  |  | > 3.3e-05 | > 3.3e-05 | 2.95e-05 | 5.72e-06 | > 3.3e-05 | 5.7 | > 3.3e-06 | 7.13
6 | CN1CCCn2c(C(=O)O)c(CCCOc3cccc4ccccc34)c3cccc(c32)-c2c(COc3ccc(C4CCOCC4)cc3)nn(C)c2C1 (single isomer, unassigned) [Example 1-58, (+)-7,9-dimethyl-1-[3-(naphthalen-1-yloxy)propyl]-11-{[4-(tetrahydro-2H-pyran-4-yl)phenoxy]methyl}-4,5,6,7,8,9-hexahydropyrazolo[3′,4′:7,8][1,5]diazecino[9,10,1-hi]indole-2-carboxylic Acid] | 7.32e-06 | 2.01e-05 | 2.14e-05 | 1.2e-05 | 0.0189 | 1.31e-05 | 12.2 | 1.17e-05 | 17.3 |  |  |  |  |  |  |  | 
7 | CN1CCCn2c(C(=O)O)c(CCCOc3cccc4ccccc34)c3cccc(c32)-c2c(COc3ccc(C4CCOCC4)cc3)nn(C)c2C1 (single isomer, unassigned) [Example 1-59, (−)-7,9-dimethyl-1-[3-(naphthalen-1-yloxy)propyl]-11-{[4-(tetrahydro-2H-pyran-4-yl)phenoxy]methyl}-4,5,6,7,8,9-hexahydropyrazolo[3′,4′:7,8][1,5]diazecino[9,10,1-hi]indole-2-carboxylic Acid] |  |  |  |  | 0.0938 |  |  |  |  | 6.64e-06 | 1.26e-05 | 2.01e-05 | 1.24e-05 | 1.16e-05 | 17.9 | 1.06e-05 | 15.1
8 | Cn1nc(COc2ccc(C3=CCOCC3)cc2)c2c1COCCCCn1c(C(=O)O)c(CCCOc3cccc4ccccc34)c3cccc-2c31 (single isomer, unassigned) [Example 1-62, 3-{[4-(3,6-dihydro-2H-pyran-4-yl)phenoxy]methyl}-1-methyl-7-[3-(naphthalen-1-yloxy)propyl]-1,10,11,12,13,15-hexahydropyrazolo[4′,3′:9,10][1,6]oxazacycloundecino[8,7,6-hi]indole-8-carboxylic Acid] |  | 7.6e-06 |  | 1.2e-05 | 0.67 |  | 14.5 |  | 13.1 | 3.36e-06 |  | 1.96e-05 |  | 5.49e-06 |  | 1.02e-05 | 
9 | Cn1nc(COc2ccc(C3=CCOCC3)cc2)c2c1COCCCCn1c(C(=O)O)c(CCCOc3cccc4ccccc34)c3cccc-2c31 (single isomer, unassigned) [Example 1-63, 3-{[4-(3,6-dihydro-2H-pyran-4-yl)phenoxy]methyl}-1-methyl-7-[3-(naphthalen-1-yloxy)propyl]-1,10,11,12,13,15-hexahydropyrazolo[4′,3′:9,10][1,6]oxazacycloundecino[8,7,6-hi]indole-8-carboxylic Acid] |  |  |  |  | 0.00864 |  |  |  |  | 7.77e-06 | 1.18e-05 | 7.04e-06 | 6.23e-06 | 1.11e-05 | 7.66 | 3.37e-06 | 7.32
10 | COC1(c2ccc(OCc3nn(C)c4c3-c3cccc5c(CCCOc6cccc7ccccc67)c(C(=O)O)n(c35)CCCCOC4)cc2)CCOCC1 (single isomer, unassigned) [Example 1-67, 3-{[4-(4-methoxytetrahydro-2H-pyran-4-yl)phenoxy]methyl}-1-methyl-7-[3-(naphthalen-1-yloxy)propyl]-1,10,11,12,13,15-hexahydropyrazolo[4′,3′:9,10][1,6]oxazacycloundecino[8,7,6-hi]indole-8-carboxylic Acid] |  |  |  |  | 0.34 |  |  |  |  | 2.95e-06 | 1.19e-05 | 2.29e-05 | 1.22e-05 | 6.25e-06 | 16.1 | 9.8e-06 | 17.8
